According to patent publication US12479827B2, “Heteroaromatic carboxamide derivatives as plasma kallikrein inhibitors” (Boehringer Ingelheim International GmbH, priority 2020, dated 2025):
One block for each compound: values may come before it.

Key:
[1] = molecular target: T1, Human PKK (Homo sapiens, UniProt P03952); test: Inhibition of PKK using an endpoint assay (human PKK); assay type: biochemical; conditions: fluorogenic substrate H-Pro-Phe-Arg-AMC, 1 h room temperature, method names human or rat PKK, table does not say which
T1 construct: purchased Enzyme Research Laboratories
T1 sequence (P03952 20-390 limits assumed): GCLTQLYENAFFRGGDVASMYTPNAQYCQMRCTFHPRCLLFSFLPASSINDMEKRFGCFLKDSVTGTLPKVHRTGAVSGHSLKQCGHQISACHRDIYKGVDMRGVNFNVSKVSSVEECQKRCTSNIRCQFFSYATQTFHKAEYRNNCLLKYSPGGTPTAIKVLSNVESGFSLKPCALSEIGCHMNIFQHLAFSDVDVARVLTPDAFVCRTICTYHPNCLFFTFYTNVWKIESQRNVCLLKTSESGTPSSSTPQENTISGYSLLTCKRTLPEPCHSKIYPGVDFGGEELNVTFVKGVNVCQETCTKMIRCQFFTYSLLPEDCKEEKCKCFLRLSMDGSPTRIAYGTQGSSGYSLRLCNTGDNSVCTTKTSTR
T1 sequence (P03952 391-638 limits assumed): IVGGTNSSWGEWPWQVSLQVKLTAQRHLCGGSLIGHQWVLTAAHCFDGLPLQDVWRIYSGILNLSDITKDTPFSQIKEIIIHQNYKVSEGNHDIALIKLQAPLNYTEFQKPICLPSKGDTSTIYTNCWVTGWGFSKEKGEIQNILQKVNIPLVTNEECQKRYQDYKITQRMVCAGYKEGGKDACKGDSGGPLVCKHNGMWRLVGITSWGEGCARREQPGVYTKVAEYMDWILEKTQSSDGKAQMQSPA
Method: The ability of compounds of formula (I) to inhibit plasma kallikrein (PKK), Factor XIIa (FXIIa), Factor XIa (FXIa), Factor Xa (FXa), Factor IIa (alpha-thrombin; FIIa), plasmin, trypsin, tissue kallikrein 1 (TK1), Factor VIIa (FVIIa), or FVIIa complexed with Tissue Factor, phospholipids and CaCl2 (FVIIa/TF/PL/CaCl2) is determined using the following biochemical assays in assay buffer (100 mM Tris, 150 mM NaCL, adjusted to a pH of 7.8 with HCl, and containing 0.1% (w/v) BSA and 0.05% (v/v) Tween20) in the presence of 1% (v/v) DMSO:
Subsequently, PPACK II (Calbiochem) is added as a stop solution to achieve a final concentration of 1 μM and fluorescence is measured using an Envision Reader (PerkinElmer) with the wavelength excitation setting of 355 nm and the wavelength emission setting of 460 nm.

[2] = molecular target: T2, PKK in kaolin activated human platelet poor plasma (Homo sapiens, UniProt P03952); test: Inhibition of PKK in kaolin activated human PPP; assay type: biochemical; conditions: 25-750 μg/mL kaolin, global fit, text b200 calls the values IC90;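 note: readout is the rate of fluorogenic substrate cleavage in rfu per min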
T2 construct: Platelet poor plasma (PPP) obtained from human wholeblood; from tissue
T2 sequence (P03952 391-638 limits assumed): as above
T2 sequence (P03952 20-390 limits assumed): as the sequence (P03952 20-390 limits assumed) above
Method: Platelet poor plasma (PPP) obtained from human wholeblood, anticoagulated with Na-Citrate, is incubated with various concentrations of the test compound together with either 25, 75, 250, or 750 μg/mL kaolin in assay buffer for 20 min at 37° C. such that for each kaolin dose used a concentration response is obtained for the test compound.

SMILES: Cn1cnc2c1CC[C@H]2NC(=O)c1cn(Cc2ccc(N3CC4C(C3)C4(F)F)nc2Cl)nn1 (stereo partly drawn) [Example 1, 1-[(2-Chloro-6-{6,6-difluoro-3-azabicyclo[3.1.0]hexan-3-yl}pyridin-3-yl)methyl]-N-[(4R)-1-methyl-1H,4H,5H,6H-cyclopenta[d]imidazol-4-yl]-1H-1,2,3-triazole-4-carboxamide]
IC50 [1]: 1.3 nM
IC50 [2]: 290 nM

SMILES: COCc1nc(N2CC3C(C2)C3(F)F)ccc1Cn1cc(C(=O)N[C@@H]2CCc3c2ncn3C)cn1 (stereo partly drawn) [Example 2, 1-[(6-{6,6-Difluoro-3-azabicyclo[3.1.0]hexan-3-yl}-2-(methoxymethyl)pyridin-3-yl)methyl]-N-[(4R)-1-methyl-1H,4H,5H,6H-cyclopenta[d]-imidazol-4-yl]-1H-pyrazole-4-carboxamide]
IC50 [1]: 3.1 nM
IC50 [2]: 253 nM

SMILES: Cn1cnc2c1CC[C@H]2NC(=O)c1cn(Cc2ccc(N3CC4(CC4)C3)nc2Cl)nn1 [Example 5, 1-[(6-{5-Azaspiro[2.3]hexan-5-yl}-2-chloropyridin-3-yl)methyl]-N-[(4R)-1-methyl-1H,4H,5H,6H-cyclo-penta[d]imidazol-4-yl]-1H-1,2,3-triazole-4-carboxamide]
IC50 [1]: 1.1 nM
IC50 [2]: 278 nM

SMILES: Cn1cnc2c1CC[C@H]2NC(=O)c1cn(Cc2ccc(N3CC4(CC4)C3)nc2Br)nn1 [Example 6, 1-[(6-{5-Azaspiro[2.3]hexan-5-yl}-2-bromopyridin-3-yl)methyl]-N-[(4R)-1-methyl-1H,4H,5H,6H-cyclo-penta[d]imidazol-4-yl]-1H-1,2,3-triazole-4-carboxamide]
IC50 [1]: 0.9 nM
IC50 [2]: 1880 nM

SMILES: Cn1cnc2c1CC[C@H]2NC(=O)c1cn(Cc2ccc(N3CC4C(C3)C4(F)F)nc2F)cn1 (stereo partly drawn) [Example 7, 1-[(6-{6,6-Difluoro-3-azabicyclo[3.1.0]hexan-3-yl}-2-fluoropyridin-3-yl)methyl]-N-[(4R)-1-methyl-1H,4H,5H,6H-cyclopenta[d]imidazol-4-yl]-1H-imidazole-4-carboxamide]
IC50 [1]: 1.4 nM
IC50 [2]: 151 nM

SMILES: Cn1cnc2c1CC[C@H]2NC(=O)c1cn(Cc2ccc(N3CC4CC4C3)cn2)nn1 (stereo partly drawn) [Example 8, 1-[(5-{3-Azabicyclo[3.1.0]hexan-3-yl}pyridin-2-yl)methyl]-N-[(4R)-1-methyl-1H,4H,5H,6H-cyclopenta[d]imidazol-4-yl]-1H-1,2,3-triazole-4-carboxamide]
IC50 [1]: 2.3 nM
IC50 [2]: 352 nM

SMILES: Cn1cnc2c1CC[C@H]2NC(=O)c1cnn(Cc2ccc(N3CC4CC4C3)cn2)c1 (stereo partly drawn) [Example 9, 1-[(5-{3-Azabicyclo[3.1.0]hexan-3-yl}pyridin-2-yl)methyl]-N-[(4R)-1-methyl-1H,4H,5H,6H-cyclopenta[d]imidazol-4-yl]-1H-pyrazole-4-carboxamide]
IC50 [1]: 3.8 nM
IC50 [2]: 603 nM

SMILES: Cc1nc(N2C[C@@]3(C)C[C@@]3(C)C2)ncc1Cn1cc(C(=O)N[C@@H]2CCc3c2ncn3C)cn1 [Example 225, 1-({2-[(1R,5S)-1,5-Dimethyl-3-azabicyclo[3.1.0]hexan-3-yl]-4-methylpyrimidin-5-yl}methyl)-N-[(4R)-1-methyl-1H,4H,5H,6H-cyclopenta[d]imidazol-4-yl]-1H-pyrazole-4-carboxamide]
IC50 [1]: 232 nM

SMILES: Cc1nc(N2CC3(CCC3)C2)ncc1Cn1cc(C(=O)N[C@@H]2CCc3c2ncn3C)cn1 [Example 226, 1-[(2-{2-Azaspiro[3.3]heptan-2-yl}-4-methylpyrimidin-5-yl)methyl]-N-[(4R)-1-methyl-1H,4H,5H,6H-cyclopenta[d]imidazol-4-yl]-1H-pyrazole-4-carboxamide]
IC50 [1]: 35.7 nM

SMILES: Cc1nc(N2CCC3CC3C2)ncc1Cn1cc(C(=O)N[C@@H]2CCc3c2ncn3C)cn1 (stereo partly drawn) [Example 227, 1-[(2-{3-Azabicyclo[4.1.0]heptan-3-yl]-4-methylpyrimidin-5-yl)methyl]-N-[(4R)-1-methyl-1H,4H,5H,6H-cyclopenta[d]imidazol-4-yl]-1H-pyrazole-4-carboxamide]
IC50 [1]: 45.3 nM

SMILES: Cc1nc(N2CC3C(C2)C3(C)C)ncc1Cn1cc(C(=O)N[C@@H]2CCc3c2ncn3C)cn1 (stereo partly drawn) [Example 228, 1-[(2-{6,6-Dimethyl-3-azabicyclo[3.1.0]hexan-3-yl}-4-methylpyrimidin-5-yl)methyl]-N-[(4R)-1-methyl-1H,4H,5H,6H-cyclopenta[d]imidazol-4-yl]-1H-pyrazole-4-carboxamide]
IC50 [1]: 126 nM

SMILES: Cc1nc(N2C[C@@H]3[C@@H](C)[C@@H]3C2)ncc1Cn1cc(C(=O)N[C@@H]2CCc3c2ncn3C)cn1 [Example 229, N-[(4R)-1-Methyl-1H,4H,5H,6H-cyclopenta[d]imidazol-4-yl]-1-({4-methyl-2-[(1R,5S,6R)-6-methyl-3-azabicyclo[3.1.0]hexan-3-yl]pyrimidin-5-yl}methyl)-1H-pyrazole-4-carboxamide]
IC50 [1]: 110 nM

Results, then the compound that gave them:

IC50 [1]: 53.7 nM
SMILES: Cc1nc(N2CCC3(CC3)C2)ncc1Cn1cc(C(=O)N[C@@H]2CCc3c2ncn3C)cn1 [Example 230, 1-[(2-{5-Azaspiro[2.4]heptan-5-yl}-4-methylpyrimidin-5-yl)methyl]-N-[(4R)-1-methyl-1H,4H,5H,6H-cyclopenta[d]imidazol-4-yl]-1H-pyrazole-4-carboxamide]

IC50 [1]: 223 nM
SMILES: Cc1nc(N2CC3CC(C2)O3)ncc1Cn1cc(C(=O)N[C@@H]2CCc3c2ncn3C)cn1 [Example 231, N-[(4R)-1-Methyl-1H,4H,5H,6H-cyclopenta[d]imidazol-4-yl]-1-[(4-methyl-2-{6-oxa-3-azabicyclo[3.1.1]heptan-3-yl}pyrimidin-5-yl)methyl]-1H-pyrazole-4-carboxamide]

IC50 [1]: 512 nM
SMILES: Cc1nc(N2CCCC3(CC3)C2)ncc1Cn1cc(C(=O)N[C@@H]2CCc3c2ncn3C)cn1 [Example 232, 1-[(2-{5-Azaspiro[2.5]octan-5-yl}-4-methylpyrimidin-5-yl)methyl]-N-[(4R)-1-methyl-1H,4H,5H,6H-cyclopenta[d]imidazol-4-yl]-1H-pyrazole-4-carboxamide]

IC50 [1]: 81.4 nM
SMILES: COC1C2CC1CN(c1ncc(Cn3cc(C(=O)N[C@@H]4CCc5c4ncn5C)cn3)c(C)n1)C2 (stereo partly drawn) [Example 233, 1-[(2-{6-Methoxy-3-azabicyclo[3.1.1]heptan-3-yl}-4-methylpyrimidin-5-yl)methyl]-N-[(4R)-1-methyl-1H,4H,5H,6H-cyclopenta[d]imidazol-4-yl]-1H-pyrazole-4-carboxamide]

IC50 [1]: 350 nM
SMILES: CO[C@H]1[C@@H]2CC[C@H]1CN(c1ncc(Cn3cc(C(=O)N[C@@H]4CCc5c4ncn5C)cn3)c(C)n1)C2 [Example 234, 1-({2-[(1R,5S,8R)-8-Methoxy-3-azabicyclo[3.2.1]octan-3-yl]-4-methylpyrimidin-5-yl}methyl)-N-[(4R)-1-methyl-1H,4H,5H,6H-cyclopenta[d]imidazol-4-yl]-1H-pyrazole-4-carboxamide]

IC50 [1]: 214 nM
SMILES: Cc1nc(N2C[C@@H]3[C@@H](CO)[C@@H]3C2)ncc1Cn1cc(C(=O)N[C@@H]2CCc3c2ncn3C)cn1 [Example 235, 1-({2-[(1R,5S,6S)-6-(Hydroxymethyl)-3-azabicyclo[3.1.0]hexan-3-yl]-4-methylpyrimidin-5-yl}methyl)-N-[(4R)-1-methyl-1H,4H,5H,6H-cyclopenta[d]imidazol-4-yl]-1H-pyrazole-4-carboxamide]

IC50 [1]: 222 nM
SMILES: Cc1nc(N2C[C@@H]3[C@@H](O)[C@@H]3C2)ncc1Cn1cc(C(=O)N[C@@H]2CCc3c2ncn3C)cn1 [Example 236, 1-({2-[(1R,5S,6S)-6-Hydroxy-3-azabicyclo[3.1.0]hexan-3-yl]-4-methylpyrimidin-5-yl}methyl)-N-[(4R)-1-methyl-1H,4H,5H,6H-cyclopenta[d]imidazol-4-yl]-1H-pyrazole-4-carboxamide]

IC50 [1]: 111 nM
SMILES: Cc1nc(N2CCC3(CC2)CC3)ncc1Cn1cc(C(=O)N[C@@H]2CCc3c2ncn3C)cn1 [Example 237, 1-[(2-{6-Azaspiro[2.5]octan-6-yl}-4-methylpyrimidin-5-yl)methyl]-N-[(4R)-1-methyl-1H,4H,5H,6H-cyclopenta[d]imidazol-4-yl]-1H-pyrazole-4-carboxamide]

IC50 [1]: 123 nM
SMILES: Cc1nc(N2CC3CCC3C2)ncc1Cn1cc(C(=O)N[C@@H]2CCc3c2ncn3C)cn1 (stereo partly drawn) [Example 238, 1-[(2-{3-Azabicyclo[3.2.0]heptan-3-yl}-4-methylpyrimidin-5-yl)methyl]-N-[(4R)-1-methyl-1H,4H,5H,6H-cyclopenta[d]imidazol-4-yl]-1H-pyrazole-4-carboxamide]

IC50 [1]: 123 nM
SMILES: Cc1nc(N2CC3CCCC3C2)ncc1Cn1cc(C(=O)N[C@@H]2CCc3c2ncn3C)cn1 (stereo partly drawn) [Example 239, N-[(4R)-1-Methyl-1H,4H,5H,6H-cyclopenta[d]imidazol-4-yl]-1-[(4-methyl-2-{octahydrocyclopenta[c]pyrrol-2-yl}pyrimidin-5-yl)methyl]-1H-pyrazole-4-carboxamide]

IC50 [1]: 52 nM
SMILES: Cc1nc(N2CCC3(CCC3)C2)ncc1Cn1cc(C(=O)N[C@@H]2CCc3c2ncn3C)cn1 [Example 240, 1-[(2-{6-Azaspiro[3.4]octan-6-yl}-4-methylpyrimidin-5-yl)methyl]-N-[(4R)-1-methyl-1H,4H,5H,6H-cyclopenta[d]imidazol-4-yl]-1H-pyrazole-4-carboxamide]
